Laboratory results as given in patent US20110230566A1, “PERFLUOROCARBON EYE CREAM FORMULATIONS” (priority 2010, published 2011).

Columns and labels:
[1] = Oxygen and CO2 carrying capacity of the PFC; format: physicochemical; conditions: at body temperature
Protocol: Perfluoro(tert-butylcyclohexane) can carry about 43 mL of oxygen per 100 mL of PFC, and 196 mL of CO2 per 100 mL of PFC at body temperature.

[2] = Physical properties of perfluoro(tert-butylcyclohexane); format: physicochemical
From the text: Physical properties of perfluoro(tert-butylcyclohexane) are as follows:
Oxycyte® is a perfluorocarbon emulsion oxygen carrier. The active ingredient in Oxycyte®, perfluoro(tert-butylcyclohexane) (C10F20, MW˜500), also known as F-tert-butylcyclohexane or “FtBu”, is a saturated alicyclic PFC. […] Oxycyte® can be used in the PFC compositions, methods and uses described herein.
Being that the PFCs are slightly lipophilic at body temperature and would help in the transport of oxygen into and removal of carbon dioxide from, e.g., periocular skin.

CO2 carried [1]: ~196 mL of CO2 per 100 mL of PFC | oxygen carried [1]: about 43 mL of oxygen per 100 mL of PFC | Density [2]: 1.97 g/mL | Kinematic Viscosity [2]: 5.378 cP | water solubility [2]: non-water soluble | Vapor Pressure ([2]; @ 25° C.): 3.8 mmHg | Vapor Pressure ([2]; @ 37° C.): 4.4 mmHg | lipophilicity ([2]; at body temperature): only slightly lipophilic | lipophilicity ([2]; at room temperature): not lipophilic | lipophilicity ([2]; temperature not stated): non-lipophilic
SMILES: FC(F)(F)C(C(F)(F)F)(C(F)(F)F)C1(F)C(F)(F)C(F)(F)C(F)(F)C(F)(F)C1(F)F [perfluoro(tert-butylcyclohexane)]
